The results in this text go back to publication PMC12321279, “Novel 4,5‐Dihydrothiazole‐Phenylpiperazine Derivatives: Synthesis, Docking Studies and Pharmacological Evaluation as Serotonergic Agents” (Chemmedchem, 2025).

Assay [1] deals with mice. In words: MK‐801‐induced hyperactivity test. The format is in vivo. The settings on record: 30 mg/kg i.p. 60 min before test, MK‐801 0.3 mg kg^−1 s.c., 20 min observation. The method, then: The tests were performed on male white mice of the Albino Swiss strain, whose weight was between 24 and 30 g in Experimental Medicine Center, Medical University of Lublin, Poland. The animals were housed (four/five per cage). Before conducting the experimental tests, the animals were subjected to an adaptation that lasted seven days. This consisted of keeping them in a room with relatively constant conditions: a temperature of 22 ± 1 °C, a humidity of 55 ± 5% and lighting that mimicked the natural day and night rhythm (12 h/12 h). Constant access to food and water was provided. Standard feed—LSM Motycz pelleted feed—and tap water were used. Mice were randomly allocated to study groups. Each group was represented by 8–10 animals, depending on the research schedule. The experiments were performed according to the procedures set out in the regulations for animal experiments: National Institute of Health Guidelines for the Care and Use of Laboratory Animals (8th edition) and to the European Community Council Directive for the Care and Use of Laboratory Animals of 22 September 2010 (2010/63/EU). The study was approved by the Local Ethical Committee in Lublin (number of ethical approvals: 27/2023). Tested compounds: FG‐1, FG‐4, FG‐5, FG‐6, FG‐7, FG‐8, and FG‐18 were finely ground in mortars with the addition of the emulsifier Tween‐80. A suspension was obtained, which was then diluted with aqueous solution of 0.5% methylcellulose (tylose). The mixture was then administered intraperitoneally (i.p.) to the animals 60 min before the start of the experiments. Animals in the control groups received a 0.5% tylose solution. All substances were administered via the same route of administration in appropriate dose and volume of 0.1 mL per 10 g of animal body weight. Prior to the administration of the drug, the animals were weighed, during the interval between tests, they were provided with food, water, and constant living conditions. […]

The subject of assay [2] is mice. In words: Forced swim test (FST, Porsolt's test). The class given is in vivo. The method, then: The tests were performed on male white mice of the Albino Swiss strain, whose weight was between 24 and 30 g in Experimental Medicine Center, Medical University of Lublin, Poland. The animals were housed (four/five per cage). Before conducting the experimental tests, the animals were subjected to an adaptation that lasted seven days. This consisted of keeping them in a room with relatively constant conditions: a temperature of 22 ± 1 °C, a humidity of 55 ± 5% and lighting that mimicked the natural day and night rhythm (12 h/12 h). Constant access to food and water was provided. Standard feed—LSM Motycz pelleted feed—and tap water were used. Mice were randomly allocated to study groups. Each group was represented by 8–10 animals, depending on the research schedule. The experiments were performed according to the procedures set out in the regulations for animal experiments: National Institute of Health Guidelines for the Care and Use of Laboratory Animals (8th edition) and to the European Community Council Directive for the Care and Use of Laboratory Animals of 22 September 2010 (2010/63/EU). The study was approved by the Local Ethical Committee in Lublin (number of ethical approvals: 27/2023). Tested compounds: FG‐1, FG‐4, FG‐5, FG‐6, FG‐7, FG‐8, and FG‐18 were finely ground in mortars with the addition of the emulsifier Tween‐80. A suspension was obtained, which was then diluted with aqueous solution of 0.5% methylcellulose (tylose). The mixture was then administered intraperitoneally (i.p.) to the animals 60 min before the start of the experiments. Animals in the control groups received a 0.5% tylose solution. All substances were administered via the same route of administration in appropriate dose and volume of 0.1 mL per 10 g of animal body weight. Prior to the administration of the drug, the animals were weighed, during the interval between tests, they were provided with food, water, and constant living conditions.
The study was carried out using the test proposed by R. Porsolt.^[ [46] ^] The method is based on the observation of an animal forced to swim in a confined space from which there is no escape. After an initial period of vigorous attempts to get out, the animal finally gives up on escaping. The test consists of immersing the mouse individually in a cylinder (diameter 10 cm, height 25 cm) filled with water (at a temperature of 23–25 °C) to a height of 10 cm for 6 min. In this test, two parameters were measured: immobility time in seconds (s), understood as the state in which the mouse makes only those movements that are necessary to keep the head above water, and the latency to the first immobility (s). Measurements were taken during the last 4 min of the experiment, starting from the 2nd to the 6th minute. At the end of each session, the animals were removed from the cylinders, dried with a towel, and placed near a heater until completely dry. Antidepressants typically show increased latency and decreased immobility in this test.

Another assay concerns the target 5‐HT2A receptor (Rattus norvegicus, UniProt P14842). In words: Inhibition of 5‐HT‐evoked contractions in isolated rat ileum. Also on record: segments (1–1.5 cm) of ileum were removed, flushed of luminal contents, and placed in Krebs solution; from tissue; host or cells: isolated rat (Sprague-Dawley) ileum segments. The settings on record: 5‐HT 10^−5 M, compounds 10^−8–10^−5 M; for Emax: read-out: EMAX, maximal inhibitory effect on 5‐HT‐induced contractions in the rat ileum; for IC50: IC50, inhibition of 5‐HT‐induced contractions in the rat ileum, contact time 10 min. The method, then:
Male rats (Sprague‐Dawley, 160–200 g; Charles River Laboratories; Calco, Italy) were manipulated and cared for in strict compliance with the principles of laboratory animal care. Experimental procedures were conducted in conformity with Italian (D.L. 26/2014) and European (directive 2010/63/EU) regulations on the protection of animals used for scientific purposes and approved by the Italian Ministry. Animal housing complied with recent pharmacological guidance.^[ [40] ^] All animals weighing 160–200 g were used after a 1‐week acclimation period (temperature 23 ± 2 °C; humidity 60%, free access to water and standard food).
The segments were prepared as previously described:^[ [41] ^] the segments were set up in such a way as to record contractions mainly from the longitudinal axis, in an organ bath containing 20 mL of Krebs solution, bubbled with 95% O2 and 5% CO2 and maintained at 37 °C. The tissues were connected to an isotonic transducer (load: 0.5 g), connected to Power Lab system (Ugo Basile, Comerio, Italy). Ileal segments were equilibrated for 60 min^[ [16] ^] followed by three repeated additions of submaximal concentration of 5‐HT (10^−5 M) in order to record stable control contractions. […] The contact time for each concentration was 10 min. The compounds were dissolved in DMSO. […] Results are expressed as mean (SEM). […] The IC50 and Emax values were calculated with the aid of a computer program (GraphPad Prism 5).

The mark [3] stands for this setting: 15 mg kg^−1 i.p. 60 min before test.
[4] abbreviates: 30 mg kg^−1 i.p. 60 min before test.
Where [5] appears, read: 7.5 mg kg^−1 i.p. 60 min before test.

Chain of 5‐HT2A receptor (P14842 whole entry): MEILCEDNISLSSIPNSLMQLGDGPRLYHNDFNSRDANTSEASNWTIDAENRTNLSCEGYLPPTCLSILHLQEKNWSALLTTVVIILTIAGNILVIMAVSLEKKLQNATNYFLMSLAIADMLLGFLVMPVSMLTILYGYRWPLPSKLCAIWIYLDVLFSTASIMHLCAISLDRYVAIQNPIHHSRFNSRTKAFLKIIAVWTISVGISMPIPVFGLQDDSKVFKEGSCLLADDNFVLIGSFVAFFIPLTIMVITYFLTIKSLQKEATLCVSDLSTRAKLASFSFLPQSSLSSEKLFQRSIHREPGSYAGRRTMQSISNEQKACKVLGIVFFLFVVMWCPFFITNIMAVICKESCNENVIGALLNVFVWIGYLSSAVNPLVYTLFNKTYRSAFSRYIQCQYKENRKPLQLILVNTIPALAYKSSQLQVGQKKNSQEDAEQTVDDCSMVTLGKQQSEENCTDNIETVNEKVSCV

As to `O=C(NCCCN1CCN(c2ccccc2C2=NCCS2)CC1)c1ccccn1` [FG‐1, N‐(3‐(4‐(2‐(4,5‐dihydrothiazol‐2‐yl) phenyl) piperazin‐1‐yl) propyl) picolinamide], the “MK‐801‐induced hyperactivity” value in the assay on mice [1] is “significant decrease in MK‐801‐induced hyperactivity”. Further, the “FST, total duration of immobility” value with mice [2] (setting [3]) was “significant decrease in immobility”. In addition, in the assay on mice [2] (setting [4]), the “FST, latency to first immobility” value is given as “significant increase in latency to first immobility” and the “FST, total duration of immobility” value was “significant decrease in immobility”.

As to `O=C(NCCCN1CCN(c2cccc(C3=NCCS3)c2)CC1)c1ccccn1` [FG‐2, N‐(3‐(4‐(3‐(4,5‐dihydrothiazol‐2‐yl) phenyl) piperazin‐1‐yl) propyl) picolinamide], on 5‐HT2A receptor, the Emax – broadly, the maximal effect, on the per cent scale that the assay sets – was 25.4% and the IC50 (commonly the concentration at which inhibition is half-maximal) worked out at 6120 nM.

Regarding `O=C(NCCCN1CCN(c2ccccc2C2=NCCS2)CC1)c1ccncc1` [FG‐4, N‐(3‐(4‐(2‐(4,5‐dihydrothiazol‐2‐yl) phenyl) piperazin‐1‐yl) propyl) isonicotinamide], the “MK‐801‐induced hyperactivity” value in the assay on mice [1] is listed as “significant decrease in MK‐801‐induced hyperactivity”.

For `O=C(NCCCN1CCN(c2cccc(C3=NCCS3)c2)CC1)c1ccncc1` [FG‐5, N‐(3‐(4‐(3‐(4,5‐dihydrothiazol‐2‐yl) phenyl) piperazin‐1‐yl) propyl) isonicotinamide], the “FST, total duration of immobility” value in the assay with mice [2] (setting [3]) is recorded as “significant decrease in immobility”. Moreover, in the assay with mice [2] (setting [4]), the “FST, latency to first immobility” value is “significant increase in latency to first immobility” and the “FST, total duration of immobility” value was “significant decrease in immobility”.

`O=C(NCCCN1CCN(c2ccc(C3=NCCS3)cc2)CC1)c1ccncc1` [FG‐6, N‐(3‐(4‐(4‐(4,5‐dihydrothiazol‐2‐yl) phenyl) piperazin‐1‐yl) propyl) isonicotinamide]: the “MK‐801‐induced hyperactivity” value in the assay with mice [1] is recorded as “significant decrease in MK‐801‐induced hyperactivity”. In the assay on mice [2] (setting [5]), the “FST, latency to first immobility” value is “significant increase in latency to first immobility” and the “FST, total duration of immobility” value is recorded as “significant decrease in immobility”. Moreover, in the assay on mice [2] (setting [3]), the “FST, latency to first immobility” value is “significant increase in latency to first immobility” and the “FST, total duration of immobility” value is on record as “significant decrease in immobility”.

Turning to `O=C1C2C3C=CC(C3)C2C(=O)N1OCCCN1CCN(c2ccccc2C2=NCCS2)CC1` (centres unmarked) [FG‐7, 2‐(3‐(4‐(2‐(4,5‐dihydrothiazol‐2‐yl) phenyl) piperazin‐1‐yl) propoxy)‐3a,4,7,7a‐tetrahydro‐1 H‐4,7‐methanoisoindole‐1,3(2 H)‐dione], at 5‐HT2A receptor, the Emax came to 24.5% and inhibition was half-maximal at 1790 nM (IC50).

As for `O=C1C2C3C=CC(C3)C2C(=O)N1OCCCN1CCN(c2cccc(C3=NCCS3)c2)CC1` (centres unmarked) [FG‐8, 2‐(3‐(4‐(3‐(4,5‐dihydrothiazol‐2‐yl) phenyl) piperazin‐1‐yl) propoxy)‐3a,4,7,7a‐tetrahydro‐1H‐4,7‐methanoisoindole‐1,3(2H)‐dione], in the assay on mice [2] (setting [4]), the “FST, latency to first immobility” value is reported as “significant increase in latency to first immobility” and the “FST, total duration of immobility” value was “significant decrease in immobility”. Besides, on 5‐HT2A receptor, the Emax turned out to be 21.4% and half-maximal inhibition (IC50) was put at 155 nM.

As to `O=C(NCCCN1CCN(c2ccc(C3=NCCS3)cc2)CC1)C1CC2C=CC1C2` (stereo not drawn) [FG‐18, Endo‐ N‐(3‐(4‐(4‐(4,5‐dihydrothiazol‐2‐yl)phenyl)piperazin‐1‐yl)propyl) bicyclo[2.2.1]hept‐5‐ene‐2‐carboxamide], at 5‐HT2A receptor, the maximal response (Emax) was found to be 32.8% and half-maximal inhibition (IC50) was put at 2970 nM.
